According to PubChem BioAssay (NCI):
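How tested: cells in 96-well plates exposed to compound for 48 hours at five concentrations. GI50 = concentration required for 50% inhibition of growth. The concentration for full growth arrest is given as TGI.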

What was measured:
Experiment in all cases: DTP human tumour cell line panel, 48 h
UO-31 renal = system: UO-31 renal
HOP-62 NSCLC = system: HOP-62 NSCLC
ACHN renal = system: ACHN renal
MALME-3M melanoma = system: MALME-3M melanoma
TK-10 renal = system: TK-10 renal
LOX IMVI melanoma = system: LOX IMVI melanoma
HOP-92 NSCLC = system: HOP-92 NSCLC
MDA-MB-231 breast = system: MDA-MB-231 breast
SK-MEL-2 melanoma = system: SK-MEL-2 melanoma
UACC-257 melanoma = system: UACC-257 melanoma
BT-549 breast = system: BT-549 breast
NCI/ADR-RES ovarian = system: NCI/ADR-RES ovarian
SF-268 CNS = system: SF-268 CNS
CAKI-1 renal = system: CAKI-1 renal
OVCAR-5 ovarian = system: OVCAR-5 ovarian
SF-539 CNS = system: SF-539 CNS
U251 CNS = system: U251 CNS
NCI-H460 lung = system: NCI-H460 lung
HT29 colon = system: HT29 colon
M14 melanoma = system: M14 melanoma
SW-620 colon = system: SW-620 colon
SNB-75 CNS = system: SNB-75 CNS
SK-OV-3 ovarian = system: SK-OV-3 ovarian
HL-60(TB) leukemia = system: HL-60(TB) leukemia
SNB-19 CNS = system: SNB-19 CNS
MCF7 breast = system: MCF7 breast
UACC-62 melanoma = system: UACC-62 melanoma

Structure (SMILES): COc1ccc(C(=O)c2cc(OC)c(OC)c(OC)c2OC)cc1O
- TGI (UO-31 renal): > 100 µM
- GI50 (HOP-62 NSCLC): 4.14 µM
- TGI (HOP-62 NSCLC): > 100 µM
- GI50 (ACHN renal): 8.94 µM
- TGI (ACHN renal): > 100 µM
- GI50 (MALME-3M melanoma): 4.49 µM
- TGI (MALME-3M melanoma): > 100 µM
- GI50 (TK-10 renal): 52.8 µM
- TGI (TK-10 renal): > 100 µM
- GI50 (LOX IMVI melanoma): 4.95 µM
- TGI (LOX IMVI melanoma): > 100 µM
- GI50 (HOP-92 NSCLC): 4.73 µM
- TGI (HOP-92 NSCLC): > 100 µM
- GI50 (MDA-MB-231 breast): 5.82 µM
- TGI (MDA-MB-231 breast): > 100 µM
- GI50 (SK-MEL-2 melanoma): 4.28 µM
- TGI (SK-MEL-2 melanoma): > 100 µM
- GI50 (UACC-257 melanoma): 4.75 µM
- TGI (UACC-257 melanoma): > 100 µM
- GI50 (BT-549 breast): 5.52 µM
- TGI (BT-549 breast): > 100 µM
- GI50 (NCI/ADR-RES ovarian): 1.97 µM
- TGI (NCI/ADR-RES ovarian): 7.09 µM
- GI50 (SF-268 CNS): 4.19 µM
- TGI (SF-268 CNS): > 100 µM
- GI50 (CAKI-1 renal): 2.21 µM
- TGI (CAKI-1 renal): 6.28 µM
- GI50 (OVCAR-5 ovarian): 17.5 µM
- TGI (OVCAR-5 ovarian): > 100 µM
- GI50 (SF-539 CNS): 3.05 µM
- TGI (SF-539 CNS): 8.96 µM
- GI50 (U251 CNS): 3.61 µM
- TGI (U251 CNS): > 100 µM
- GI50 (NCI-H460 lung): 3.59 µM
- TGI (NCI-H460 lung): > 100 µM
- GI50 (HT29 colon): 3.8 µM
- TGI (HT29 colon): > 100 µM
- GI50 (M14 melanoma): 3.1 µM
- TGI (M14 melanoma): > 100 µM
- GI50 (SW-620 colon): 2.99 µM
- TGI (SW-620 colon): > 100 µM
- GI50 (SNB-75 CNS): 1.69 µM
- TGI (SNB-75 CNS): 5.77 µM
- GI50 (SK-OV-3 ovarian): 3.33 µM
- TGI (SK-OV-3 ovarian): 90.1 µM
- GI50 (HL-60(TB) leukemia): 2.77 µM
- TGI (HL-60(TB) leukemia): 9.82 µM
- GI50 (SNB-19 CNS): 4.49 µM
- TGI (SNB-19 CNS): > 100 µM
- GI50 (MCF7 breast): 3.83 µM
- TGI (MCF7 breast): > 100 µM
- GI50 (UACC-62 melanoma): 4.3 µM
- TGI (UACC-62 melanoma): > 100 µM
